Earlier results as cited in patent US20130084245A1, “PET MONITORING OF A-BETA-DIRECTED IMMUNOTHERAPY” (Wyeth LLC, priority 2010, published 2013).

Experiments:
[1] = molecular target: T1, Aβ deposits (Homo sapiens, UniProt P05067); conditions: preliminary study
T1 construct: aggregated fibrillar deposits of the Aβ peptide

[2] = molecular target: T2, aggregated fibrillar deposits of the Aβ peptide (Homo sapiens, UniProt P05067)
T2 construct: aggregated fibrillar deposits of the Aβ peptide

[3] = molecular target: T1, Aβ deposits; conditions: areas of brain association cortex targeted by Aβ deposits

T2 sequence (P05067 672-713 limits assumed): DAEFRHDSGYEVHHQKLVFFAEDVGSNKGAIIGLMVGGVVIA
T1 sequence (P05067 672-713 limits assumed): as above

## CNc1ccc(/C=C/c2ccc(OCCOCCOCC[18F])cc2)cc1 [^18F-BAY94-9172]
[1]
  Performance as PET ligand in AD and controls: performed comparably to ^11C-PIB

## CNc1ccc(-c2nc3ccc(O)cc3s2)cc1 [PiB, 2-(4′-methylaminophenyl)-6-hydroxybenzothiazole]
[2]
  Affinity for aggregated fibrillar deposits of the Aβ peptide: low nanomolar affinity
[2]; low nanomolar concentrations typically used in PET studies
  Selectivity of binding to postmortem human brain: selective for fibrillar Aβ deposits
[3]
  Retention in AD patients compared with controls: approximately two-fold
